Assay results published in US9902986B2, “Enterobactin conjugates and uses thereof” (Massachusetts Institute of Technology, priority 2013, dated 2018).
Entries after “also recorded” stand apart in the source; their conditions may differ.

Experiments:
[1] = system: E. coli 25922; test: Antimicrobial activity assay, E. coli 25922; assay type: cell-based, Escherichia coli; details: 50% MHB, 200 μM DP (iron-deficient), 30° C., t=19 h
Method: (§1) No antibiotic marker was included in these cultures. […] Bacterial growth was determined by measuring OD600 using a BIOTEK SYNERGY HT plate reader. Each well condition was prepared in duplicate, and at least three independent replicates were conducted on different days. The resulting mean OD600 are reported and the error bars are the standard deviation.
In another exemplary experiment, antibacterial activities of the conjugates were tested against E. coli 25922 in 50% MHB at 30° C., t=19 h. […] Under iron-deficient conditions, Ent-Amp and MGE-Amp provided a complete growth inhibition at 100 nM whereas 1 μM of DGE-Amp was required to provide a complete growth inhibition.

[2] = system: mixed culture of E. coli K-12 and E. coli UTI89; test: Mixed culture assay, E. coli K-12 and E. coli UTI89; assay type: cell-based, Escherichia coli; details: iron-deficient conditions (200 μM DP), 50% MHB, 30° C., t=19 h
Text: (§2) No antibiotic marker was included in these cultures.

[3] = system: E. coli H9049; test: Antimicrobial activity assay, E. coli H9049; assay type: cell-based, Escherichia coli; details: 50% MHB, 30° C., t=19 h
Method: (§3) Overnight cultures of the bacterial strains were prepared by inoculating 5 mL of LB with the bacterial freezer stocks and the cultures were incubated at 37° C. in a tabletop incubator shaker set at 150 rpm. The overnight culture grew to saturation and was diluted 1:100 into 5 mL of fresh LB medium containing DP (200 μM) and incubated at 37° C. with shaking at 150 rpm until OD600 reached 0.6. The cultures were subsequently diluted to an OD600 value of 0.001 in 50% MHB medium (11.5 g/L) with or without DP (200 μM). No antibiotic marker was included in these cultures. A 90-μL aliquot of the diluted culture was combined with a 10-μL aliquot of a 10× solution of the tested compounds in a 96-well plate, which was wrapped in […] and incubated at 30° C. with shaking at 150 rpm for 19 h. Bacterial growth was determined by measuring OD600 using a BIOTEK SYNERGY HT plate reader. Each well condition was prepared in duplicate, and at least three independent replicates were conducted on different days. The resulting mean OD600 are reported and the error bars are the standard deviation.
In another exemplary experiment, antibacterial activities of the conjugates were tested against E. coli H9049 in 50% MHB at 30° C., t=19 h. DP (200 μM) was added to provide conditions of iron limitation.

[4] = system: mixed culture of E. coli K-12 and E. coli CFT073; details: iron-deficient conditions (200 μM DP), 50% MHB, 30° C., t=19 h
Method: as §2
2,2′-dipyridyl (DP, 200 μM) was added to provide conditions of iron limitation.

[5] = system: E. coli UTI89; test: Antimicrobial activity assay, E. coli UTI89; assay type: cell-based, Escherichia coli; details: 50% MHB, 200 μM DP (iron-deficient), 30° C., t=19 h
Method: as §1
In another exemplary experiment, antibacterial activities of the conjugates were tested against E. coli UTI89 in 50% MHB at 30° C., t=19 h. […] Under iron-deficient conditions, Ent-Amp, MGE-Amp, and DGE-Amp provided a complete growth inhibition at 100 nM.

[6] = system: E. coli B; test: Antimicrobial activity assay, E. coli B; assay type: cell-based, Escherichia coli; details: 50% MHB, 30° C., t=19 h
Method: as §3
In another exemplary experiment, antibacterial activities of the conjugates were tested against E. coli B in 50% MHB at 30° C., t=19 h. DP (200 μM) was added to provide conditions of iron limitation.

[7] = system: E. coli CFT073; test: Antimicrobial activity assay in the presence of lipocalin 2; assay type: cell-based, Escherichia coli; details: conjugate 100 nM, lcn2 1 μM, M9 minimal media, 37° C., 24 h
Method: The bacterial cultures were grown in modified M9 minimal medium (Blango, M. G.; Ott, E. M.; Erman, A.; Veranic, P.; Mulvey, M. A. Forced Resurgence and Targeting of Intracellular Uropathogenic Escherichia coli Reservoirs. PLoS One 2014, 9, e93327-e93335) (Na2HPO4 6.8 g/L, KH2PO4 3 g/L, NaCl 0.5 g/L, NH4Cl 1 g/L, 0.4% glucose, 2 mM MgSO4, 0.1 mM CaCl2, 0.2% casein amino acids, and 16.5 μg/mL of thiamine) overnight. […] The cultures were serially diluted to an OD600 value of 0.00001 in fresh modified M9 minimal medium. Lipocalin 2 (Lcn2) was diluted into PBS buffer to a concentration of 20 μM upon arrival and frozen at −20° C. until use. Bovine serum albumin (BSA, Sigma-Aldrich) was prepared in PBS buffer to achieve a concentration of 20 μM. […] The bacterial growth was determined by measuring OD600 using the plate reader. […] The resulting mean OD600 was reported, and the error bars were the standard deviation. […] In contrast, Lcn2 had no effect of the antibacterial activity of MGE-Amp, MGE-Amx, DGE-Amp, or DGE-Amx.

[8] = system: E. coli UTI89; test: Competition assay with native siderophores, E. coli UTI89; assay type: cell-based, Escherichia coli; details: conjugate 100 nM, varied Ent, MGE or DGE, 50% MHB, 200 μM DP, 30° C., t=19 h
Method: Ent was synthesized following a literature procedure^55 and stored as DMSO stock solution at −20° C. MGE and DGE were prepared from Ent using MceC and IroB as described for MGE-PEG3-N3 and DGE-PEG3-N3.
In an exemplary experiment, select conjugates (Ent-Amp, MGE-Amp, and DGE-Amp) with select native siderophores (Ent, MGE, and DGE) were tested against the uropathogenic strain E. coli UTI89 in 50% MHB, t=19 h, 30° C. […] The concentration of the conjugates was fixed at 100 nM, and the concentration of the native siderophores was varied. […] These observations indicate that Ent, MGE, Ent-Amp, and MGE-Amp may enter via both FepA and IroN with different efficiency, but DGE and DGE-Amp may only enter via IroN.
In another exemplary experiment, select conjugates (Ent-Amp, MGE-Amp, and DGE-Amp) with select native siderophores (Ent, MGE, and DGE) were tested against the uropathogenic strain E. coli UTI89 in 50% MHB, t=19 h, 30° C. […] The concentration of the conjugates was fixed at 100 nM and the concentration of the native siderophores was varied. […] These observations indicate that Ent, MGE, Ent-Amp, and MGE-Amp may enter via both FepA and IroN with different efficiency, but DGE and DGE-Amp may only enter via IroN.

Structure (SMILES): CC1(C)SC2C(NC(=O)C(NC(=O)CCCc3cn(CCOCCOCCOCCNC(=O)c4cc(O)c(O)c(C(=O)NC5COC(=O)C(NC(=O)c6cc(C7OC(CO)C(O)C(O)C7O)cc(O)c6O)COC(=O)C(NC(=O)c6cc(C7OC(CO)C(O)C(O)C7O)cc(O)c6O)COC5=O)c4)nn3)c3ccccc3)C(=O)N2C1C(=O)O (stereo not drawn) [DGE-Amp]
- concentration required to provide complete growth inhibition [1]: 1 µM
- growth inhibition in mixed culture at 100 nM [2]: only inhibited the growth of E. coli UTI89
- antibacterial activity at 100 nM ([3]; 200 μM DP): inactive
- concentration at which growth inhibition was observed (attributed to iron deprivation) ([3]; 200 μM DP): 10 µM
- growth inhibition in mixed culture at 100 nM [4]: only inhibited the growth of E. coli CFT073
- concentration providing complete growth inhibition [5]: 100 nM
- antibacterial activity at 100 nM ([6]; 200 μM DP): inactive
- concentration at which growth inhibition was observed (attributed to iron deprivation) ([6]; 200 μM DP): 10 µM
- effect of lipocalin-2 (lcn2) on antibacterial activity [7]: no effect; also recorded: unaffected; also recorded: not attenuated
- attenuation of antibacterial activity by native siderophores [8]: attenuated by Ent, MGE, or DGE

Structure (SMILES): CC1(C)SC2C(NC(=O)C(NC(=O)CCCc3cn(CCOCCOCCOCCNC(=O)c4cc(O)c(O)c(C(=O)NC5COC(=O)C(NC(=O)c6cccc(O)c6O)COC(=O)C(NC(=O)c6cccc(O)c6O)COC5=O)c4)nn3)c3ccc(O)cc3)C(=O)N2C1C(=O)O (stereo not drawn) [Ent-Amx]
- effect of lipocalin-2 (lcn2) on antibacterial activity [7]: attenuated in the presence of Lcn2
- attenuation of antibacterial activity by native siderophores [8]: only attenuated in the presence of Ent or MGE

Structure (SMILES): CC1(C)SC2C(NC(=O)C(NC(=O)CCCc3cn(CCOCCOCCOCCNC(=O)c4cc(O)c(O)c(C(=O)NC5COC(=O)C(NC(=O)c6cccc(O)c6O)COC(=O)C(NC(=O)c6cccc(O)c6O)COC5=O)c4)nn3)c3ccccc3)C(=O)N2C1C(=O)O (stereo not drawn) [Ent-Amp]
- concentration providing complete growth inhibition [1]: 100 nM
- concentration providing complete growth inhibition for both strains [2]: 100 nM
- concentration providing complete growth inhibition ([3]; 200 μM DP (iron-deficient)): 100 nM
- concentration providing complete growth inhibition for both strains [4]: 100 nM
- concentration providing complete growth inhibition [5]: 100 nM
- concentration providing complete growth inhibition ([6]; 200 μM DP (iron-deficient)): 100 nM
- effect of lipocalin-2 (lcn2) on antibacterial activity [7]: attenuated in the presence of Lcn2
- attenuation of antibacterial activity by native siderophores [8]: only attenuated in the presence of Ent or MGE

Structure (SMILES): CC1(C)SC2C(NC(=O)C(NC(=O)CCCc3cn(CCOCCOCCOCCNC(=O)c4cc(O)c(O)c(C(=O)NC5COC(=O)C(NC(=O)c6cc(C7OC(CO)C(O)C(O)C7O)cc(O)c6O)COC(=O)C(NC(=O)c6cccc(O)c6O)COC5=O)c4)nn3)c3ccccc3)C(=O)N2C1C(=O)O (stereo not drawn) [MGE-Amp]
- concentration providing complete growth inhibition [1]: 100 nM
- growth inhibition in mixed culture at 100 nM [2]: only inhibited the growth of E. coli UTI89
- antibacterial activity at 100 nM ([3]; 200 μM DP): inactive
- antibacterial activity, comparison ([3]; 200 μM DP): more active against the bacteria than DGE-Amp
- growth inhibition in mixed culture at 100 nM [4]: only inhibited the growth of E. coli CFT073
- concentration providing complete growth inhibition [5]: 100 nM
- antibacterial activity at 100 nM ([6]; 200 μM DP): inactive
- antibacterial activity, comparison ([6]; 200 μM DP): more active against the bacteria than DGE-Amp
- effect of lipocalin-2 (lcn2) on antibacterial activity [7]: no effect; also recorded: unaffected; also recorded: not attenuated
- attenuation of antibacterial activity by native siderophores [8]: attenuated by Ent, MGE, or DGE
